Experimental data taken from patent US7504415B2, “Therapeutic agent for glomerular disease” (Kowa Co., Ltd., priority 2001, dated 2009).
pIC50: −log10 of the molar value.

How the values were obtained:
[1] = tested on: progressive anti-Thy-1 nephritic rat; test: Pharmacological test using progressive anti-Thy-1 nephritic rats; type: in vivo; conditions: 20 mg/kg perorally once/day, 10 weeks
Method: (1) Wistar female rats (5 weeks old, purchased from Japan SLC Co., Ltd.) were quarantined and acclimatized for four days, and used for the test. First, the right kidney of each rat was removed through flank incision under anesthesia with pentobarbital. Two weeks after removal of the right kidney, an anti-Thy-1 antibody (anti-mesangial-cell antibody/monoclonal antibody 1-22-3; purchased from Panafarm Laboratories Co., Ltd.) was intravenously administered (500 μg/rat) into the tail vein, whereby progressive anti-Thy-1 nephritis was induced. Immediately thereafter, compound A which had been suspended in an aqueous 0.5% sodium carboxymethyl cellulose solution was perorally administered via a peroral probe to each rat in a forced and continuous manner (20 mg/kg body weight, once/day, 10 weeks). After completion of 10 weeks' administration of compound A, urine was taken from each rat for 18 hours in a metabolic cage (Sugiyama Gen Co., Ltd.), and the total amount of protein excreted into the urine was determined.
(2) After completion of the urine analysis, the left kidney was extirpated from each rat, fixed in formalin, and embedded with paraffin. A thin slice obtained from the thus-treated kidney was stained with hematoxylin and eosin (HE), and observed under a stereoscopic microscope. […] The ratio was evaluated on the basis of the following classification. […]

[2] = tested on: renal failure model (5/6 nephrectomized) rats; test: Renal failure model (5/6 nephrectomized) rats; type: in vivo, rat; conditions: 15 mg/kg perorally once a day
Excerpt: Male Wistar rats (10 weeks old, 300 to 350 g, purchased from Japan SLC Co., Ltd.) were anesthetized with pentobarbital, and the right kidney of each rat was extirpated. Subsequently, the left kidney was exposed. Under a stereoscopic microscope, two of the left renal artery branches (generally, one renal artery is separated into three branches) were ligated and one central branch was left intact, to thereby provide a 5/6 nephrectomized rat. When a renal artery branch is ligated, a portion controlled by the branch falls into ischemia, and such ischemic renal portion can be visually detected. The thus-produced renal failure models were evaluated in terms of increase in blood urea nitrogen level (BUN) one day after the ligation.
The rats were divided into three groups such that the BUN level (one day after ligation) of the groups were equalized, and compound A was administered to each rat of the groups. The groups consisted of a normal rat group (N=5); a 5/6 nephphrectomized and drug-untreated group (control: N=8); and a 5/6 nephrectomized and compound-A-administered group (15 mg/kg: N=8). […] The (total protein)/creatinine ratio (UP/Ucr) in a urine sample and the BUN level were determined on days 7, 14, 21, 28, and 35 after ligation.

Slc: Wistar rats = test: Acute toxicity test; type: in vivo, rat
Method: Slc: Wistar rats (5 male rats and 5 female rats, 6 weeks old, purchased from Japan SLC Co., Ltd.) were subjected to fasting overnight. After fasting, compound A which had been suspended in an aqueous 0.5% sodium carboxymethyl cellulose solution was perorally administered in a forced manner to each male rat (500 mg/kg) and each female rat (250 mg/kg).

Human mensagial cells = test: Mensagial matrix (PIP) production inhibition test, TGF-β1-stimulated, ELISA; type: cell-based; conditions: TGF-β1 10 ng/mL stimulation, 72 hours culture, PIP by ELISA, read-out: PIP production inhibitory activity (IC50)
Method: (1) Culture and Storage of Human Mensagial Cells
Human mensagial cells (normal human mensagial cells, CryoNHMC, product of Sanko Junyaku Co., Ltd.) were cultured in MsGM medium (15 mL/flask) by use of two 75-cm^2 flasks (430720, CORNING). The medium was replaced with fresh medium every 2 to 3 days. Subsequently, the culture was scaled up to a 225-cm^2 flask (3000, COSTER) level, and three vials of passage 5 and 27 vials of passage 6 were prepared at a cell count of 5×10^6 cells/Cell Banker 1 mL/vial (430659, CORNING). The thus-cultured cell samples were stored in a container cooled by liquid nitrogen.
(2) Determination of Mansagial Matrix Production Inhibitory Activity
Cryopreserved human mensagial cells of passage 6 were revived and sown in a medium placed in a 75-cm^2 flask. The medium was replaced the next day, and incubation was continued for three more days. The thus-cultured cells were treated with 0.25% trypsin-0.02% EDTA. […] After completion of culturing, the PIP level of each culture liquid was determined through ELISA by use of a PIP determination kit (product of TAKARA). The percent inhibition (%) was calculated in accordance with the following equation, and the PIP production inhibitory activity (IC50 value) was derived from the percent inhibition. […]

## monocalcium (+)-bis[(3R, 5S, 6E)-7-[2-cyclopropyl-4-(4-fluorophenyl)-3-quinolyl]-3,5-dihydroxy-6-heptenoate] [compound A]
[1]; FIG. 1
  total amount of protein excreted into urine (18 hours): significantly lowered
[1]; FIG. 2
  lesions occurring in the malpighian tubes and stroma (tubulointerstitial damage score, HE staining): significantly inhibited
[2]; after week 4, FIG. 4
  blood urea nitrogen (BUN) level: significant decrease
[2]; weeks 7 and 8 after administration, vs drug-untreated group, FIG. 3
  (total protein)/creatinine ratio (UP/Ucr) in urine: significantly decreases
Slc: Wistar rats; female rats, 250 mg/kg single peroral dose after overnight fasting
  death during observation period of 14 days: no case of death
Slc: Wistar rats; male rats, 500 mg/kg single peroral dose after overnight fasting
  death during observation period of 14 days: no case of death
Human mensagial cells
  pIC50: 4.65
